Columns and labels:
22Rv1 cells = assay: Apoptosis assay (annexin-V, TUNEL) in 22Rv1; format: cell-based, human; conditions: 22Rv1, 1 μM
Protocol: Apoptosis Assay. An apoptosis assay is carried out using the Thermo Fisher ApoDETECT Annexin V-FITC kit following the protocol recommended by the vendor. […] Then, fixed cells are incubated with Annexin V-FITC in PBS solution for 30 minutes at room temperature. After washing three times with PBS, cells are treated with 300 nM DAPI in PBS for 5 minutes at room temperature. Finally, after washing three times with PBS, mounting solution is added and the cells are visualized using immunofluorescence microscopy. Next, a TUNEL assay is performed using Promega DeadEnd Fluorometric TUNEL system. After treatment with Test Compound and fixation as described above in the Annexin-V experiment, 100 μl of equilibration buffer is incubated for 10 min. Then, 50 μl of TdT reaction mix is added and incubated for 60 min at 37° C. in a humidified chamber. Finally, stop solution is added and samples are mounted on slides using mounting medium. To assess non-specific cytotoxicity, an LDH assay kit is used.

[1] = tested on: Enzalutamide-resistant CaP tumor xenografts; assay: Enzalutamide-resistant CaP tumor xenograft, systemic (IP or oral) dosing; format: in vivo, mice; conditions: four weeks, with enzalutamide, control 2200 mm^3
Protocol: In Vivo Study. To explore the therapeutic potential of Test Compound, 22Rv1, 22Rv1-Enz^R, VCaP, and VCaP-Enz^R are injected into nu/nu immunodeficient mice. When the resulting tumors reached an average size of 3 mm in diameter, all animals are surgically castrated via bilateral orchiectomy and divided into four groups of five mice each. For anesthesia, 3% isoflurane gas inhalation is used. Tumor size was measured using calipers and tumor volume was calculated using the formula: tumor volume=length×width^2[…].
Mice are then treated daily with Test Compound with or without enzalutamide via the indicated route (intratumoral, intraperitoneal, or oral) for five to six weeks. At the end of the study, all animals are sacrificed and tumors are harvested and analyzed. Statistical significance is calculated using the Student's t-test for paired comparisons of experimental groups and, where appropriate, by Wilcoxon rank sum test, and by 2-way ANOVA. In vitro experiments are repeated a minimum of three times.
To test whether the Compound is active systemically, an identical study is carried out as above except for delivering the Compound intraperitoneally (IP) or orally for four weeks. Enzalutamide-resistant CaP tumor xenografts are established in twelve mice and three each are assigned to the following four groups: control IP (vehicle), control oral (vehicle), 8.3 mg/kg IP, and 8.3 mg/kg oral. […]

AR-FL = target: T1, AR-FL (Homo sapiens, UniProt P10275, DUP590-628/H875Y); assay: Immunoblot of AR-FL polyubiquitination in 22Rv1 pretreated with MG132; format: cell-based; set-up: decreased AR-V7 and AR-FL protein expression levels in 22Rv1 cells; endogenous in cells; host or cells: 22Rv1; conditions: 22Rv1 pretreated with MG132 two hours; compound 1 μM
T1 sequence (P10275 with tags, fused parts or gaps DUP590-628/H875Y): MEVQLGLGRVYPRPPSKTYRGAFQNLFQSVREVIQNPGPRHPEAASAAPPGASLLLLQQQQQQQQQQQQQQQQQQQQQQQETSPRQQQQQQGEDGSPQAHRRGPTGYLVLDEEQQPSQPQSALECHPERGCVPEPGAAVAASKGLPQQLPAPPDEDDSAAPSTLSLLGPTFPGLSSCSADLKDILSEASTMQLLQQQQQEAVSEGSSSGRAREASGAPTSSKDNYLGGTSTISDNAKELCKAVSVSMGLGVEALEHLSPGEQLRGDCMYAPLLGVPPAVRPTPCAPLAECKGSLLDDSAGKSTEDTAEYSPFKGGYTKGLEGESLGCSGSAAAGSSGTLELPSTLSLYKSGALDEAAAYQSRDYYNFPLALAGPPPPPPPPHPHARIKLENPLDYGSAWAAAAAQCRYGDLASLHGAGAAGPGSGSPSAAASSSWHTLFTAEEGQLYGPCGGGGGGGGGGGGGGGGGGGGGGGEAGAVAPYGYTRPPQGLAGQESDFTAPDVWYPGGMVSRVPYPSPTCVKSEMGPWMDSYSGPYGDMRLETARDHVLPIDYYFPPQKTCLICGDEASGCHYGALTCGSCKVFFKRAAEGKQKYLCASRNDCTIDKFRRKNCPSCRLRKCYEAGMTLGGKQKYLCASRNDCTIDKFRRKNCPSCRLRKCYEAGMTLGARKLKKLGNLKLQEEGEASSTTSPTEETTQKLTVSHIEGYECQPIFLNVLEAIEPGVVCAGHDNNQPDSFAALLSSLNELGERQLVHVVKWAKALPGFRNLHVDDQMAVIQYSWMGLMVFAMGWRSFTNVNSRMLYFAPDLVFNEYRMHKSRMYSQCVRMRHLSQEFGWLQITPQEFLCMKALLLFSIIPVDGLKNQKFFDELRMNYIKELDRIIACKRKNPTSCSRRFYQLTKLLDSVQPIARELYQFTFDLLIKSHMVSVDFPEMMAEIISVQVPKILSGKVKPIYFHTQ
Protocol: Immunoblot Analysis. CaP cells are collected and lysed with the lysis buffer (20 mM Tris-HCl (pH 7.5), 150 mM NaCl, 1 mM Na2EDTA, 1 mM EGTA, 1% Triton, 2.5 mM sodium pyrophosphate, 1 mM beta-glycerophosphate, 1 mM Na3VO4, and 1 μg/ml leupeptin) containing 1 mM phenylmethylsulfonyl fluoride (PMSF). Cell lysates are then centrifuged and protein in the supernatant is quantified. After separating 25-50 μg of protein using SDS-PAGE, samples are incubated with AR-V7, GR, PR, ERα, AR-FL, ubiquitin, or β-actin antibodies. For AR-V7, AR-FL, PR, GR, and ERα immunoblots, primary antibody is diluted 1:1000 in 5% skim milk. For the β-actin immunoblot, 1:10000 diluted primary antibody is used. All membranes are incubated overnight at 4° C. Following the incubation with appropriate secondary antibody, immunoblots are analyzed using SuperSignal West Femto Maximum Sensitivity Substrate (ThermoFisher).
To determine the ubiquitination status of AR proteins, 22Rv1 is pretreated with MG132 for two hours prior to adding Compound of Example 16 (at 1 μM).

With `Cc1ncsc1-c1ccc([C@H](C)NC(=O)[C@@H]2C[C@@H](O)CN2C(=O)[C@@H](NC(=O)CCCCNC(=O)COc2c(-c3csc(N4CCOCC4)n3)ccc(F)c2F)C(C)(C)C)cc1` [Example 16, (2S,4R)-1-((S)-2-(5-(2-(2,3-difluoro-6-(2-morpholinothiazol-4-yl)phenoxy)acetamido)pentanamido)-3,3-dimethylbutanoyl)-4-hydroxy-N-((S)-1-(4-(4-methylthiazol-5-yl)phenyl)ethyl)pyrrolidine-2-carboxamide] the “apoptosis, TUNEL assay” value (22Rv1 cells) was “confirmed”, the “apoptosis, annexin-V assay” value (22Rv1 cells; 0 to 48 hours, starts approximately three hours after treatment, increases through 48 hours) was “increase in annexin-V staining” and the tumor size ([1]; 8.3 mg/kg IP) was “approximately 1000 mm^3”. For the same molecule, the tumor size ([1]; 8.3 mg/kg oral (PO)) was “approximately 700 mm^3” and the “time of detection of AR-FL polyubiquitination after treatment” value (AR-FL) was 24 h.
